The record followed here is patent US20200222418A1, “USE OF PHENOTHIAZINE DERIVATIVE IN THE TREATMENT OF INFECTION CAUSED BY BACTERIA CARRYING TYPE IV PILI” (priority 2017, published 2020).

Assay [1] concerns HDMECs infected with N. meningitidis Nm2C4.3. As to the kind of experiment: Basement membrane (Gelatin-FITC matrix) degradation by infected endothelial cells. In kind it is cell-based, human. The note with it: 150 μg/ml Gentamicin, 24 h post-infection. The procedure: (A) Experimental procedure: HBMECs grown on a fluorescent matrix (Gelatin-Fitc) were colonized by N. meningitidis for 6 h. They were then treated with 150 μg/ml gentamicin for 1 h, then 15 min with Trifluoperazine (50 μM) (or solvent alone as control) and incubated for further 15 h in the presence of 150 μg/ml gentamicin. (B) Fluorescence microscopy was used to visualize cells stained with labelled phalloidin and the fluorescent matrix. The presence of dark zones corresponds to zones of matrix degradation. (C) Quantification of the percentage of matrix degradation, using Image J software.
Plastic coverslips (13 mm diameter) (Nalgen #174950) were washed in ethanol 70%, dried then coated with poly-L-lysine 1 mg/ml for 20 min at room temperature. After one wash in sterile PBS, 0.5% Glutaraldehyde was added for 15 min at room temperature. After three washes in PBS, Gelatin-FITC (0.2 mg/ml Invitrogen #G13187) was added for 10 minutes at room temperature in the dark. Coverslip were then washed with sterile PBS and treated with 5 mg/ml sodium borohydride for 3 min. After three washes in sterile PBS, 10^5 HDMECs (PromoCell #C-12210) were seeded per well in their PromoCell culture medium and incubated overnight at 37° C. 5% CO2. The day after, cells were infected with N. meningitidis Nm2C4.3, as above described. […] Quantifications were performed using ImageJ software (NIH).

The subject of assay [2] is Nm2C4.3 colonization of human brain vessels. Further details: species or system Neisseria meningitidis. The note with it: 40 μM for 30 min.
Procedure: A. Immunofluorescence analysis of CD31 (green), N. meningitidis colonies (red) and nucleus (blue) in the cortical region of serial brain sections from the same donor infected with Nm2C4.3 wild-type strain for 1 h, then treated with Trifluoperazine (40 μM for 30 min) or PBS alone, as a control. Scale bars, 20 μm. Images are representative of 2 different human brain sections. B. Mean±s.e.m. of the vascular colonization index. Analysis of 50 sections per brain section, n=2 sections per condition. ***P<0.001, one-way ANOVA.
In situ infection of fresh human brain sections was performed as described previously (Bernard et al, 2014). […] Adherent meningococci were detected by immunofluorescence analysis: brain sections were incubated with the following primary antibodies for 2 h in PBS/BSA 0.1%: monoclonal anti-human CD31/PECAM-1 mouse monoclonal antibody (clone HEC7, ABCAM, ab119339) and a rabbit polyclonal serum anti-Nm 2C4.3 strain (1:3000). […] Entire samples were scanned using a Lamina (Perkin Helmer) and were further analysed using confocal microscopy (spinning disk Leica, 63x). Quantification analysis of the images (n=50 per section) was performed using ImageJ software (NIH). […]

Regarding `CN[C@@H]1[C@@H](O)C(O[C@@H]2[C@@H](O)[C@H](O[C@H]3O[C@H]([C@@H](C)NC)CC[C@H]3N)[C@@H](N)C[C@H]2N)OC[C@]1(C)O` (stereo partly drawn) [Gentamicin, (3R,4R,5R)-2-{[(1S,2S,3R,4S,6R)-4,6-diamino-3-{[(2R,3R,6S)-3-amino-6-[(1R)-1-(methylamino)ethyl]oxan-2-yl]oxy}-2-hydroxycyclohexyl]oxy}-5-methyl-4-(methylamino)oxane-3,5-diol], the “degradation of the basement membrane” value in assay [1] is listed as “about 20%”.

Regarding `CN1CCN(CCCN2c3ccccc3Sc3ccc(C(F)(F)F)cc32)CC1` [Trifluoperazine], in assay [2], the “dispersal of meningococcal microcolonies in infected brain sections” value is reported as “induced the dispersal”.
